Test results reported in PubChem BioAssay (NCI).
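Assay format: 96-well plates, 48-hour exposure. GI50 marks 50% less growth. TGI marks complete inhibition of growth.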

Key:
Test in all cases: NCI-60 cell line screen, 48 h
SNB-75 CNS = test system: SNB-75 CNS
HT29 colon = test system: HT29 colon
A549 NSCLC = test system: A549 NSCLC
SK-MEL-5 melanoma = test system: SK-MEL-5 melanoma
ACHN renal = test system: ACHN renal
CCRF-CEM leukemia = test system: CCRF-CEM leukemia
RPMI-8226 leukemia = test system: RPMI-8226 leukemia
K-562 leukemia = test system: K-562 leukemia
EKVX NSCLC = test system: EKVX NSCLC
BT-549 breast = test system: BT-549 breast
HCT-116 colon = test system: HCT-116 colon
HCT-15 colon = test system: HCT-15 colon
A498 renal = test system: A498 renal
IGROV1 ovarian = test system: IGROV1 ovarian
HS 578T breast = test system: HS 578T breast
OVCAR-4 ovarian = test system: OVCAR-4 ovarian
SK-MEL-28 melanoma = test system: SK-MEL-28 melanoma
SF-539 CNS = test system: SF-539 CNS
U251 CNS = test system: U251 CNS
UACC-62 melanoma = test system: UACC-62 melanoma
UACC-257 melanoma = test system: UACC-257 melanoma
MCF7 breast = test system: MCF7 breast
UO-31 renal = test system: UO-31 renal
COLO 205 colon = test system: COLO 205 colon
NCI-H522 lung = test system: NCI-H522 lung
HL-60(TB) leukemia = test system: HL-60(TB) leukemia
PC-3 prostate = test system: PC-3 prostate
HOP-92 NSCLC = test system: HOP-92 NSCLC
OVCAR-8 ovarian = test system: OVCAR-8 ovarian
T-47D breast = test system: T-47D breast
M14 melanoma = test system: M14 melanoma
HOP-62 NSCLC = test system: HOP-62 NSCLC
786-0 renal = test system: 786-0 renal
SNB-19 CNS = test system: SNB-19 CNS
OVCAR-5 ovarian = test system: OVCAR-5 ovarian
SF-268 CNS = test system: SF-268 CNS
MOLT-4 leukemia = test system: MOLT-4 leukemia
SK-MEL-2 melanoma = test system: SK-MEL-2 melanoma
SK-OV-3 ovarian = test system: SK-OV-3 ovarian
SW-620 colon = test system: SW-620 colon
NCI-H460 lung = test system: NCI-H460 lung
TK-10 renal = test system: TK-10 renal
MDA-MB-435 = test system: MDA-MB-435
DU-145 prostate = test system: DU-145 prostate
MALME-3M melanoma = test system: MALME-3M melanoma
LOX IMVI melanoma = test system: LOX IMVI melanoma
HCC-2998 colon = test system: HCC-2998 colon
MDA-MB-231 breast = test system: MDA-MB-231 breast
SN12C renal = test system: SN12C renal
NCI-H23 lung = test system: NCI-H23 lung
NCI/ADR-RES ovarian = test system: NCI/ADR-RES ovarian
NCI-H226 lung = test system: NCI-H226 lung
RXF 393 renal = test system: RXF 393 renal
CAKI-1 renal = test system: CAKI-1 renal
KM12 colon = test system: KM12 colon
SF-295 CNS = test system: SF-295 CNS

COc1cc(/C=C\c2cc(/C=C\c3ccc(O)c(OC)c3)n(C(=O)COc3ccc(Cl)cc3Cl)n2)ccc1O
GI50 (SNB-75 CNS): 994 nM | TGI (SNB-75 CNS): 7810 nM | GI50 (HT29 colon): 2750 nM | TGI (HT29 colon): 7030 nM | GI50 (A549 NSCLC): 1310 nM | TGI (A549 NSCLC): 10300 nM | GI50 (SK-MEL-5 melanoma): 661 nM | TGI (SK-MEL-5 melanoma): 3030 nM | GI50 (ACHN renal): 476 nM | TGI (ACHN renal): 9130 nM | GI50 (CCRF-CEM leukemia): 432 nM | TGI (CCRF-CEM leukemia): > 100000 nM | GI50 (RPMI-8226 leukemia): 569 nM | TGI (RPMI-8226 leukemia): 7620 nM | GI50 (K-562 leukemia): 381 nM | TGI (K-562 leukemia): > 100000 nM | GI50 (EKVX NSCLC): 1980 nM | TGI (EKVX NSCLC): 9720 nM | GI50 (BT-549 breast): 526 nM | TGI (BT-549 breast): 3340 nM | GI50 (HCT-116 colon): 416 nM | TGI (HCT-116 colon): 6210 nM | GI50 (HCT-15 colon): 342 nM | TGI (HCT-15 colon): 3610 nM | GI50 (A498 renal): 3820 nM | TGI (A498 renal): 12000 nM | GI50 (IGROV1 ovarian): 1990 nM | TGI (IGROV1 ovarian): 10300 nM | GI50 (HS 578T breast): 1200 nM | TGI (HS 578T breast): > 100000 nM | GI50 (OVCAR-4 ovarian): 1290 nM | TGI (OVCAR-4 ovarian): > 100000 nM | GI50 (SK-MEL-28 melanoma): 1190 nM | TGI (SK-MEL-28 melanoma): 7320 nM | GI50 (SF-539 CNS): 380 nM | TGI (SF-539 CNS): 2850 nM | GI50 (U251 CNS): 916 nM | TGI (U251 CNS): 6150 nM | GI50 (UACC-62 melanoma): 552 nM | TGI (UACC-62 melanoma): 12000 nM | GI50 (UACC-257 melanoma): 2190 nM | TGI (UACC-257 melanoma): 7130 nM | GI50 (MCF7 breast): 336 nM | TGI (MCF7 breast): 2330 nM | GI50 (UO-31 renal): 362 nM | TGI (UO-31 renal): 2300 nM | GI50 (COLO 205 colon): 1980 nM | TGI (COLO 205 colon): 4010 nM | GI50 (NCI-H522 lung): 196 nM | TGI (NCI-H522 lung): 837 nM | GI50 (HL-60(TB) leukemia): 314 nM | TGI (HL-60(TB) leukemia): 1310 nM | GI50 (PC-3 prostate): 1800 nM | TGI (PC-3 prostate): 8020 nM | GI50 (HOP-92 NSCLC): 2930 nM | TGI (HOP-92 NSCLC): 7940 nM | GI50 (OVCAR-8 ovarian): 1590 nM | TGI (OVCAR-8 ovarian): 6090 nM | GI50 (T-47D breast): 1250 nM | TGI (T-47D breast): 3990 nM | GI50 (M14 melanoma): 349 nM | TGI (M14 melanoma): 4830 nM | GI50 (HOP-62 NSCLC): 519 nM | TGI (HOP-62 NSCLC): 3160 nM | GI50 (786-0 renal): 634 nM | TGI (786-0 renal): 2520 nM | GI50 (SNB-19 CNS): 1410 nM | TGI (SNB-19 CNS): 11700 nM | GI50 (OVCAR-5 ovarian): 2710 nM | TGI (OVCAR-5 ovarian): 8320 nM | GI50 (SF-268 CNS): 621 nM | TGI (SF-268 CNS): 9840 nM | GI50 (MOLT-4 leukemia): 425 nM | TGI (MOLT-4 leukemia): 3460 nM | GI50 (SK-MEL-2 melanoma): 302 nM | TGI (SK-MEL-2 melanoma): 1540 nM | GI50 (SK-OV-3 ovarian): 1260 nM | TGI (SK-OV-3 ovarian): 3430 nM | GI50 (SW-620 colon): 659 nM | TGI (SW-620 colon): > 100000 nM | GI50 (NCI-H460 lung): 517 nM | TGI (NCI-H460 lung): 14200 nM | GI50 (TK-10 renal): 1790 nM | TGI (TK-10 renal): 8060 nM | GI50 (MDA-MB-435): 243 nM | TGI (MDA-MB-435): 14700 nM | GI50 (DU-145 prostate): 833 nM | TGI (DU-145 prostate): 9940 nM | GI50 (MALME-3M melanoma): 488 nM | TGI (MALME-3M melanoma): 5030 nM | GI50 (LOX IMVI melanoma): 497 nM | TGI (LOX IMVI melanoma): 3290 nM | GI50 (HCC-2998 colon): 2890 nM | TGI (HCC-2998 colon): 12400 nM | GI50 (MDA-MB-231 breast): 2380 nM | TGI (MDA-MB-231 breast): 23400 nM | GI50 (SN12C renal): 935 nM | TGI (SN12C renal): 65800 nM | GI50 (NCI-H23 lung): 1060 nM | TGI (NCI-H23 lung): 5000 nM | GI50 (NCI/ADR-RES ovarian): 538 nM | TGI (NCI/ADR-RES ovarian): 21100 nM | GI50 (NCI-H226 lung): 2980 nM | TGI (NCI-H226 lung): 10200 nM | GI50 (RXF 393 renal): 1270 nM | TGI (RXF 393 renal): 3330 nM | GI50 (CAKI-1 renal): 818 nM | TGI (CAKI-1 renal): > 100000 nM | GI50 (KM12 colon): 506 nM | TGI (KM12 colon): 26200 nM | GI50 (SF-295 CNS): 3070 nM | TGI (SF-295 CNS): 8870 nM
